Series [1] concerns the target T1, GltPh (Pyrococcus horikoshii, UniProt O59010).
T1 sequence (O59010 1-417 limits assumed): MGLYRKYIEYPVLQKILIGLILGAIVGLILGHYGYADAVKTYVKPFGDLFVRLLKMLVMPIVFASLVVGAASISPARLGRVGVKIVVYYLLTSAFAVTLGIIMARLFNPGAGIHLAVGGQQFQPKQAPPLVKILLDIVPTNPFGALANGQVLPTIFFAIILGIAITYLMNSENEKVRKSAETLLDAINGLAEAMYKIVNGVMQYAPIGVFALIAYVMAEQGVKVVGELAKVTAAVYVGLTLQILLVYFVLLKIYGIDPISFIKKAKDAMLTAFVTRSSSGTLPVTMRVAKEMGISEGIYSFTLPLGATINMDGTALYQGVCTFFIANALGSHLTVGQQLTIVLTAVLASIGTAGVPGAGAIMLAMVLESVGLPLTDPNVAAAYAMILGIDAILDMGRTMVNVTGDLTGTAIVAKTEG
In words: […]-Asp uptake into proteoliposomes. The note with it: read-out: % inhibition at 10 μM. The format is biochemical.

The target of series [2] is T2, semisynthetic GltPh (Pyrococcus horikoshii, UniProt O59010, M385C).
T2 sequence (O59010 1-417 M385C limits assumed): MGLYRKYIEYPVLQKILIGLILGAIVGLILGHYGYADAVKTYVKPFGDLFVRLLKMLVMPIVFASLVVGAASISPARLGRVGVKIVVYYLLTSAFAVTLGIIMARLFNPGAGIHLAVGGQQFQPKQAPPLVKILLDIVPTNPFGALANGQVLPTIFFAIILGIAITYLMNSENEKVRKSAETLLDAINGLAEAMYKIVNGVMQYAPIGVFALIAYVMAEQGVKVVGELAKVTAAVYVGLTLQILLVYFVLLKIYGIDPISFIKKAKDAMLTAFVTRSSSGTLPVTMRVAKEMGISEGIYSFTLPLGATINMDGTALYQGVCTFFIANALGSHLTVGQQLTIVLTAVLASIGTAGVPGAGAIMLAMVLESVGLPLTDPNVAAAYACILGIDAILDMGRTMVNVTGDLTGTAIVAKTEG
In words: […]-Asp uptake into proteoliposomes. The note with it: read-out: % inhibition at 10 μM. The format is biochemical.

Series [3] concerns the molecule itself. The series can be described thus: cross-linking.

For orientation: inhibition means the share of the control response that was lost under treatment. In the case of `NC(C(=O)O)C(OCc1ccccc1)C(=O)O` (racemic) [TBOA], the inhibition at 10 µM in series [1] turned out to be 31 ± 10%; in series [2], 42 ± 4%.

B1: semisynthetic GltPh transporter (wild type sequence, M385C at the ligation site) (natural protein, Pyrococcus horikoshii)
chain: MGLYRKYIEYPVLQKILIGLILGAIVGLILGHYGYADAVKTYVKPFGDLFVRLLKMLVMPIVFASLVVGAASISPARLGRVGVKIVVYYLLTSAFAVTLGIIMARLFNPGAGIHLAVGGQQFQPKQAPPLVKILLDIVPTNPFGALANGQVLPTIFFAIILGIAITYLMNSENEKVRKSAETLLDAINGLAEAMYKIVNGVMQYAPIGVFALIAYVMAEQGVKVVGELAKVTAAVYVGLTLQILLVYFVLLKIYGIDPISFIKKAKDAMLTAFVTRSSSGTLPVTMRVAKEMGISEGIYSFTLPLGATINMDGTALYQGVCTFFIANALGSHLTVGQQLTIVLTAVLASIGTAGVPGAGAIMLAMVLESVGLPLTDPNVAAAYACILGIDAILDMGRTMVNVTGDLTGTAIVAKTEGTGSG
What is called stoichiometry N is the number of molecules, sites or subunits per partner or assembly. Take B1: the “stoichiometry N” value in series [3] worked out at 3.
